Test results reported in patent US20250276033A1, “COMPOSITIONS FOR IMPROVING KIDNEY FUNCTION IN PATIENTS WITH HEPATORENAL SYNDROME” (Mallinckrodt Pharmaceuticals Ireland Limited, priority 2022, published 2025).
Like-named read-outs stand apart in the source and are kept apart here. Where a SMILES comes first, the peptide text is derived from it. Bridges are numbered along the chain shown (N, C = ends).

Tests used:
patients with HRS-1 [1] = assay: ACLF grade and respiratory failure with terlipressin, double-blind placebo-controlled trial (Example 3); format: in vivo, human
Method: In FIG. 6B, the incidence of respiratory failure was based on CLIF-SOFA score definition of respiratory failure.
The study was a double-blind placebo-controlled trial. […] HRS-1 was defined as rapidly rising serum creatinine (SCr) to ≥2.25 mg/dl in <14 days without response to volume challenge or evidence of structural renal disease.
All patients were assessed for organ failure (OF) per EASL-CLIF criteria and then classified into grades of acute-on-chronic liver failure (ACLF). All patients had at minimum grade 1 ACLF due to the presence of HRS-1; grades 2 and 3 ACLF represent 2 or 3 OFs respectively. Patients were separated into into grade≤2 and grade 3 ACLF subgroups.

QTc interval = assay: Cardiac electrophysiology in 41 patients with HRS-1; format: in vivo, human; conditions: 1 mg terlipressin acetate every 6 hours up to 14 days; Fridericia correction
From the text: Increases of the mean QTc interval of <10 ms were reported.

CYP enzymes = assay: CYP inhibition and induction in human liver microsomes; format: in vitro ADME
From the text: (§1) No significant drug-drug interactions are anticipated with terlipressin (TERLIVAZ).

[2] = tested on: human ABC and SLC transporters; assay: Transporter inhibition and substrate studies; format: in vitro ADME
From the text: as §1

[3] = Metabolism in blood or plasma
From the text: Once formed, lysine-vasopressin is metabolized by body tissue via various peptidase-mediated routes.

pregnant guinea pigs = conditions: doses lower than the maximum recommended human dose of 4 mg/day; cited from earlier work
rabbits = conditions: increased resorptions, implantation loss, fetal anomalies and deformities; cited from earlier work
patients = conditions: voluntary reports; cited from earlier work
pregnant women = conditions: single intravenous or intranasal dose, first trimester; cited from earlier work
[4] = background statement; cited from earlier work
mouse = assay: In vivo mouse micronucleus assay
bacterial = assay: In vitro bacterial reverse mutation assay
[5] = Pharmacokinetics and excretion in healthy subjects
mammalian cell (CHO) = assay: In vitro mammalian cell (CHO) chromosome aberration assay
[6] = Pharmacokinetic modeling with sparse PK samples from 69 patients with HRS-1; conditions: for AUC(0-t) / Cmax: iv
patients with HRS-1 [7] = assay: CONFIRM randomized, placebo-controlled, double-blind study of terlipressin plus albumin; conditions: for between-group difference in the incidence of respiratory failure SAEs / between-group difference in the incidence of respiratory failure fatal AEs: terlipressin minus placebo
Method: In particular, HRS-1 was defined based on modified prior criteria outlined by the International Club of Ascites (ICA), as rapidly deteriorating renal function to SCr≥2.25 mg/dl, with actual or projected doubling of SCr within 2 weeks, without improvement in renal function (<20% decrease in SCr 48 hours after both diuretic withdrawal and albumin-fluid challenge) in adult patients with cirrhosis and ascites. […] Treatment was continued to Day 14 unless the following occurred: verified HRS reversal (VHRSR), renal replacement therapy (RRT), liver transplantation (LT) or SCr at or above baseline (BL) at Day 4. VHRSR, the primary endpoint, was defined as 2 consecutive SCr values≤1.5 mg/dl, at least 2 hours apart, with subjects alive without RRT for at least 10 days after the second SCr≤1.5 mg/dL; HRS reversal (HRSR) was a decrease in SCr to ≤1.5 mg/dL. Secondary end points included HRS reversal (any SCr value 1.5 mg/dL or less during treatment), HRS reversal without RRT by day 30, HRS reversal in patients with systemic inflammatory response syndrome, and verified HRS reversal without recurrence by day 30.
The patients were at least 18 years of age, with cirrhosis, ascites, and rapidly progressive renal failure, with a SCr doubling to at least 2.25 mg/dL within 14 days. Major exclusion criteria included SCr of greater than 7.0 mg/dL, one or more large-volume paracenteses of 4 L or more within 2 days of randomization, evidence of parenchymal renal diseases or obstructive uropathy, or presence of sepsis and/or uncontrolled bacterial infection. Patients with severe cardiovascular disease or recent (within 4 weeks) renal replacement therapy (RRT) were excluded.
300 subjects were enrolled in the study. […] Patients were stratified by qualifying SCr (less than 3.4 mg/dL or 3.4 mg/dL or greater) and pre-enrollment large-volume paracentesis (at least one single event of 4 L or greater, or less than 4 L within 3 to 14 days prior to randomization).
A baseline SCr value was assessed before the patients received the assigned treatment. […] In keeping with current guidelines, it was strongly recommended that albumin (1 g/kg to a maximum of 100 g, on day 1 and 20 to 40 g/day thereafter) be administered to all subjects. If SCr decreased <30% from the baseline value on Day 4, after a minimum of 10 doses of study drug, dose increase to 2 mg every 6 hours (±30 minutes) (8 mg/day) was mandated, except in subjects with coronary artery disease or in the setting of circulatory overload, pulmonary edema, or bronchospasm. Dose resumption was permitted after interruption for adverse events except for cardiac or mesenteric ischemia, for which treatment was permanently discontinued.
The primary efficacy end point was the incidence of verified HRS reversal, defined as the percentage of patients with two consecutive SCr values no greater than 1.5 mg/dl at least 2 hours apart, while remaining alive without RRT for at least 10 days after achieving verified HRS reversal, while excluding SCr values after RRT, transjugular intrahepatic portosystemic shunt, liver transplant, or open-label vasopressor from primary end point analysis.
Secondary efficacy end points included incidence of HRS reversal, defined as the percentage of patients with an on-treatment SCr value of 1.5 mg/dl or less; durability of HRS reversal, defined as the percentage of patients with HRS reversal without RRT to day 30; incidence of HRS reversal among patients with systemic inflammatory response syndrome; and incidence of verified HRS reversal without HRS recurrence by day 30.

[8] = human, in vivo
clinical = conditions: human, in vivo; for AUC(0-t) / Cmax: iv

For `NCCCC[C@H](NC(=O)[C@@H]1CCCN1C(=O)[C@@H]1CSSC[C@H](NC(=O)CNC(=O)CNC(=O)CN)C(=O)N[C@@H](Cc2ccc(O)cc2)C(=O)N[C@@H](Cc2ccccc2)C(=O)N[C@@H](CCC(N)=O)C(=O)N[C@@H](CC(N)=O)C(=O)N1)C(=O)NCC(N)=O` [Terlipressin, N—[N—(N-glycylglycyl)glycyl]-8-L-lysinevasopressin] (H-GGGCYFQNCPKG-NH2; disulfide 4-9 (inferred)), the “percent of patients with respiratory failure” value (patients with HRS-1 [1]; ACLF 3, FIG. 6C, investigator reported) was “much higher than placebo”, the “incidence of respiratory failure, baseline to end of treatment” value (patients with HRS-1 [1]; FIGS. 6A-6B, CLIF-SOFA definition) was “increased incidence of respiratory failure” and the “Increases of the mean QTc interval” value (QTc interval) was less than 10 ms. For the same compound, the “QTc changes from baseline” value (QTc interval) was “No clinically meaningful changes from baseline”, the “direct-, time-, or metabolism dependent inhibitor and inducer of CYP enzymes” value (CYP enzymes) was “little or no evidence” and the “inhibitor and substrate of human ABC and SLC transporters” value [2] was “little or no evidence”. For the same compound, the “metabolism in blood or plasma” value [3] was “not metabolized in blood or plasma”, the reproductive toxicity finding (pregnant guinea pigs) was “marked decrease in blood flow to the uterus and placenta” and the reproductive toxicity finding (rabbits) was “embryotoxic and teratogenic”. For the same compound, the “Adverse reactions reported from postmarketing experience” value (patients) was “headache hyponatremia, skin necrosis and gangrene”, the effect in pregnancy (pregnant women) was “induced uterine contractions and endometrial ischemia” and the duration of action [4] was 2 to 10 h. For the same compound, the half-life [4] was 6 h, the mutagenicity / clastogenicity (mouse) was “not mutagenic or clastogenic” and the mutagenicity / clastogenicity (bacterial) was “not mutagenic or clastogenic”. For the same compound, the “dose-dependent changes in the elimination rate constant” value [5] was “no dose-dependent changes”, the pharmacokinetic linearity [5] was “linear pharmacokinetics” and the mutagenicity / clastogenicity (mammalian cell (CHO)) was “not mutagenic or clastogenic”. For the same compound, the “median Cave at steady state” value ([6]; 1 mg IV injection of terlipressin acetate) was 14.2 ng/mL, the “mean Cave” value ([6]; 1 mg dose of terlipressin acetate IV) was “about 14.2 ng/ml” and the Vd ([6]; human, in vivo) was 6.3 L. It also gave a clearance ([6]; human, in vivo, 1 mg, clearance (derived typical population PK parameter), 1 mg terlipressin acetate) of 457 mL/min, a clearance ([6]; human, in vivo, clearance, typical population PK parameter (range)) of 413 to 518 mL/min and an AUC(0-t) ([6]; human, in vivo, 1 mg, AUC24h (range), 1 mg dose of terlipressin acetate IV) of 61.2 to 246 ng·h/mL. For the same compound, the Cmax ([6]; human, in vivo, 1 mg, Cmax (range), 1 mg dose of terlipressin acetate IV) was 37.1 to 143 ng/mL, the AUC(0-t) ([6]; human, in vivo, 1 mg, mean AUC24h, 1 mg dose of terlipressin acetate IV) was roughly 123 ng·h/mL and the Cmax ([6]; human, in vivo, 1 mg, mean Cmax, 1 mg dose of terlipressin acetate IV) was roughly 70.5 ng/mL. The AUC(0-t) ([6]; human, in vivo, 1 mg, median AUC24h at steady state, 1 mg IV injection of terlipressin acetate) was 123 ng·h/mL, the Cmax ([6]; human, in vivo, 1 mg, median Cmax at steady state, 1 mg IV injection of terlipressin acetate) was 70.5 ng/mL and the half-life ([6]; human, in vivo, terminal half-life) was roughly 0.9 h. For the same compound, the “Treatment discontinuation due to adverse events” value (patients with HRS-1 [7]; 24/200 patients) was 12.0%, the “most common adverse events that led to discontinuation” value (patients with HRS-1 [7]; in vivo) was “respiratory failure, abdominal pain, and intestinal ischemia/obstruction” and the “subjects listed at baseline who did not receive a transplant and died by Day 90 (pre-transplant mortality)” value (patients with HRS-1 [7]; mitigated population, 4 subjects) was 11.4%. The “AE leading to death up to 30 days post-treatment: Respiratory failure” value (patients with HRS-1 [7]; mitigated population, N = 132) was 5.3 % of Subjects, the “Any AE leading to death up to 30 days post-treatment” value (“Any AE leading to death up” for short) (patients with HRS-1 [7]; mitigated population, N = 132) was 34.1 % of Subjects and the “Death by Day 30” value (patients with HRS-1 [7]; mitigated population, N = 132) was 31.8 % of Subjects. The “Death by Day 60” value (patients with HRS-1 [7]; mitigated population, N = 132) was 40.2 % of Subjects, the “Death by Day 90” value (patients with HRS-1 [7]; mitigated population, N = 132) was 44.7 % of Subjects and the “Serior Adverse Events” value (patients with HRS-1 [7]; mitigated population, N = 132) was 61.4 % of Subjects. The “Serious adverse events: Respiratory failure” value (patients with HRS-1 [7]; mitigated population, N = 132) was 9.8 % of Subjects, the “Any AE leading to death up” value (patients with HRS-1 [7]; mitigated population, N = 132, listed as terlipressin) was 31.8 % of Subjects and the “subjects listed at baseline who did not receive a transplant and died by Day 90 (pre-transplant mortality)” value (patients with HRS-1 [7]; overall population, 12 subjects) was 21.4%. The “AE leading to death up to 30 days post-treatment: Respiratory failure” value (patients with HRS-1 [7]; overall population, N = 200) was 8.5 % of Subjects, the “Any AE leading to death up” value (patients with HRS-1 [7]; overall population, N = 200) was 41.5 % of Subjects and the “Death by Day 30” value (patients with HRS-1 [7]; overall population, N = 200) was 39.0 % of Subjects. For the same compound, the “Death by Day 60” value (patients with HRS-1 [7]; overall population, N = 200) was 47.0 % of Subjects, the “Death by Day 90” value (patients with HRS-1 [7]; overall population, N = 200) was 51.0 % of Subjects and the “Serior Adverse Events” value (patients with HRS-1 [7]; overall population, N = 200) was 65.0 % of Subjects. The “Serious adverse events: Respiratory failure” value (patients with HRS-1 [7]; overall population, N = 200) was 13.5 % of Subjects, the “Any AE leading to death up” value (patients with HRS-1 [7]; overall population, N = 200, listed as terlipressin) was 39.0 % of Subjects and the “Adverse reaction: Abdominal pain” value (patients with HRS-1 [7]; patients (percent), N = 200) was 39 (19.5). The “Adverse reaction: Bradycardia” value (patients with HRS-1 [7]; patients (percent), N = 200) was 10 (5.0), the “Adverse reaction: Diarrhea” value (patients with HRS-1 [7]; patients (percent), N = 200) was 26 (13.0) and the “Adverse reaction: Dyspnea” value (patients with HRS-1 [7]; patients (percent), N = 200) was 25 (12.5). For the same compound, the “Adverse reaction: Fluid overload” value (patients with HRS-1 [7]; patients (percent), N = 200) was 17 (8.5), the “Adverse reaction: Nausea” value (patients with HRS-1 [7]; patients (percent), N = 200) was 32 (16.0) and the “Adverse reaction: Pleural effusion” value (patients with HRS-1 [7]; patients (percent), N = 200) was 11 (5.5). For the same compound, the “Adverse reaction: Respiratory failure” value (patients with HRS-1 [7]; patients (percent), N = 200) was 31 (15.5), the “Adverse reaction: Sepsis” value (patients with HRS-1 [7]; patients (percent), N = 200) was 11 (5.5) and the “Adverse reaction: Ischemia-related events” value (patients with HRS-1 [7]; patients (percent), N = 200, skin discoloration, cyanosis, ischemia and intestinal ischemia) was 9 (4.5). The “serious or fatal respiratory failure” value (patients with HRS-1 [7]; primary clinical trial) was 14%, the “between-group difference in the incidence of respiratory failure SAEs” value (patients with HRS-1 [7]; mitigated population) was 2.8% and the “between-group difference in the incidence of respiratory failure fatal AEs” value (patients with HRS-1 [7]; mitigated population) was 3.9%. For the same compound, the “between-group difference in the incidence of respiratory failure fatal AEs” value (patients with HRS-1 [7]; overall population) was 7.5% and the “between-group difference in the incidence of respiratory failure SAEs” value (patients with HRS-1 [7]; overall study population) was 8.4%.
With `NCCCC[C@H](NC(=O)[C@@H]1CCCN1C(=O)[C@@H]1CSSC[C@H](N)C(=O)N[C@@H](Cc2ccc(O)cc2)C(=O)N[C@@H](Cc2ccccc2)C(=O)N[C@@H](CCC(N)=O)C(=O)N[C@@H](CC(N)=O)C(=O)N1)C(=O)NCC(N)=O` [lysine-vasopressin] the pharmacokinetic linearity [8] was “linear pharmacokinetics”, the Vd (clinical) was 1370 L and the clearance (clinical; 1 mg, clearance (derived typical population PK parameter)) was 5300 mL/min. The clearance (clinical; clearance, typical population PK parameter (range)) was 4720 to 6050 mL/min, the AUC(0-t) (clinical; 1 mg, AUC24h (range)) was 3.78 to 33.5 ng·h/mL and the Cmax (clinical; 1 mg, Cmax (range)) was 0.4 to 3.36 ng/mL. The AUC(0-t) (clinical; 1 mg, mean AUC24h) was 11.2 ng·h/mL, the Cmax (clinical; 1 mg, mean Cmax) was roughly 1.2 ng/mL and the AUC(0-t) (clinical; 1 mg, median AUC24h at steady state) was 11.2 ng·h/mL. For the same compound, the Cmax (clinical; 1 mg, median Cmax at steady state) was 1.2 ng/mL and the half-life (clinical; terminal half-life) was roughly 3 h.
In the case of `NC(=O)CC[C@@H]1NC(=O)[C@H](Cc2ccccc2)NC(=O)[C@H](Cc2ccc(O)cc2)NC(=O)[C@@H](N)CSSC[C@@H](C(=O)N2CCC[C@H]2C(=O)N[C@@H](CCCN=C(N)N)C(=O)NCC(N)=O)NC(=O)[C@H](CC(N)=O)NC1=O` [vasopressin], the duration of action [4] is given as 0.5 to 1 h and the half-life [4] is given as 0.1 h.
